This passage reports MIC results from patent US6287827A, “Halo- or hydroxy-substituted nocathiacin antibiotics” (Bristol-Myers Squibb Company, priority 2000, dated 2001).

Values after ≈ are worked out from the molar mass of the structure shown.

What all share (test): MIC, conventional serial broth dilution assay in nutrient broth (Difco)
Common to all, as to assay type: cell-based

Experiment [1] deals with Streptococcus pneumoniae A9585.
Experiment [2] has as its system Moraxella catarrhalis/β-lactamase positive A22344.
In experiment [3] the test system is Staphylococcus aureus/209P/ATCC #6538P A9497.
Experiment [4] concerns Bacillus subtilis/ATCC #6633 A9506A. The following applies: ATCC6633.
In experiment [5] the test system is Staphylococcus aureus/QC/ATCC #29213 A24407. The following applies: ATCC29213.
For experiment [6], the system named is Bacillus subtilis/Thiostrep. Res/Mutant A9506A.
The subject of experiment [7] is Staphylococcus aureus/β-lactamase positive A15090.
The test system of experiment [8] is Streptococcus pneumoniae/penicillin intermediate A27881.
For experiment [9], the system named is Enterococcus faecalis A20688.
Experiment [10] concerns Haemophilus influenzae/β-lactamase negative A20191.
Experiment [11] has as its system Streptococcus pneumoniae/penicillin resistant A28272.
Experiment [12] concerns Staphylococcus epidermidis A24548.
Experiment [13] deals with Enterococcus faecium A24885.
Experiment [14] has as its system Haemophilus influenzae/β-lactamase positive A21515.
Experiment [15] relates to Staphylococcus aureus/Thiostrep. Res/Mutant A9497.
Experiment [16] concerns Staphylococcus aureus/homo methicillin resistant A27223.
For experiment [17], the system named is Staphylococcus haemolyticus A27298.
The subject of experiment [18] is Enterococcus avium A27456.
For experiment [19], the system named is Moraxella catarrhalis/β-lactamase positive A25409.
Experiment [20] deals with Enterococcus faecalis A27519.
Where [21] appears, read: Staphylococcus aureus A15090 + 50% calf serum.
Where [22] appears, read: Staphylococcus aureus/β-lactamase positive A15090.
Setting [23] is: A20688, Enterococcus faecalis A20688.
Where [24] appears, read: A20688, Enterococcus faecalis A20688 +50% calf serum.
The mark [25] stands for this setting: Staphylococcus aureus A27223 + 50% calf serum.
The mark [26] stands for this setting: Staphylococcus aureus/homo methicillin resistant A27223.

Consider `C=C(NC(=O)c1csc(-c2nc3c(cc2O)-c2nc(cs2)C(=O)NC(C(C)O)C(=O)NC(=C(C)OC)c2nc(cs2)C(=O)NC2c4nc(cs4)C(=O)NC(COC(=O)c4c5c6c(cc(F)cc6n4O)COC(=O)C(OC4CC(C)(O)C(N(C)C)C(C)O4)C2OC5)c2nc-3cs2)n1)C(N)=O` (stereo not shown) [6-Fluoronocathiacin, 6-fluoronocathiacin], for which the MIC in [1] is < 0.0005 mg/L; in experiment [2], 0.25 mg/L (≈ 172 nM); in experiment [3], 0.002 mg/L (≈ 1.37 nM); in [4], 0.002 mg/L (≈ 1.37 nM); in experiment [5] it was 0.002 mg/L (≈ 1.37 nM); in experiment [6], > 32 mg/L. The MIC in [7] (setting [21]) was 0.015 mg/L; in [7] (setting [22]), 0.002 mg/L (≈ 1.37 nM); in experiment [8], < 0.0005 mg/L; in experiment [9] (setting [23]) it was < 0.001 mg/L; in [9] (setting [24]), 0.015 mg/L (≈ 10.3 nM); in experiment [10], > 16 mg/L. Further, the MIC in experiment [11] was < 0.0005 mg/L; in [12] it was 0.004 mg/L (≈ 2.75 nM); in experiment [13], 0.004 mg/L (≈ 2.75 nM); in [14] it was > 16 mg/L; in [15] it was 16 mg/L (≈ 11000 nM); in [16] (setting [25]), 0.015 mg/L. Besides, the values for the MIC in experiment [16] (setting [26]) and in experiment [17] were 0.002 mg/L (≈ 1.37 nM) and 0.004 mg/L (≈ 2.75 nM), respectively.
In the case of `C=C(NC(=O)c1csc(-c2nc3c(cc2O)-c2nc(cs2)C(=O)NC(C(C)O)C(=O)NC(=C(C)OC)c2nc(cs2)C(=O)NC2c4nc(cs4)C(=O)NC(COC(=O)c4c5c6c(c(F)ccc6n4O)COC(=O)C(OC4CC(C)(O)C(N(C)C)C(C)O4)C2OC5)c2nc-3cs2)n1)C(N)=O` (stereo not shown) [5-Fluoronocathiacin, 5-fluoronocathiacin], the MIC was 0.25 mg/L (≈ 172 nM) in [18]; 0.06 mg/L (≈ 41.2 nM) in experiment [19]; ≤ 0.002 mg/L in experiment [1]; 0.06 mg/L (≈ 41.2 nM) in experiment [2]; 0.125 mg/L (≈ 85.9 nM) in experiment [5]; 0.125 mg/L in experiment [7] (setting [21]). For the same molecule, the MIC was 0.125 mg/L (≈ 85.9 nM) in [7] (setting [22]); ≤ 0.002 mg/L in experiment [8]; 0.25 mg/L (≈ 172 nM) in [9] (setting [23]); 0.25 mg/L (≈ 172 nM) in experiment [9] (setting [24]); 0.25 mg/L (≈ 172 nM) in experiment [20]; ≤ 0.002 mg/L in experiment [11]. In addition, the MIC in experiment [12] was 0.007 mg/L (≈ 4.81 nM); in experiment [13], 0.25 mg/L (≈ 172 nM); in [16] (setting [25]) it was 0.003 mg/L; in experiment [16] (setting [26]), 0.003 mg/L (≈ 2.06 nM); in [17], 0.003 mg/L (≈ 2.06 nM).
